# Measurements: US11236086B2, “Substituted pyrrolopyridines as inhibitors of activin receptor-like kinase” (BLUEPRINT MEDICINES CORPORATION, priority 2017, dated 2022)
# pIC50: −log10 of the molar value.
# Experiments:
# human ALK2 R206H = target: T1, human ALK2 R206H (Homo sapiens, UniProt Q04771, R206H); assay: Cell-based ALK2-R206H cell activity assay (Smad1-Ser463/Ser465 phosphorylation by AlphaLISA in HEK293-ALK2-R206H cells); conditions: phospho-Smad1 AlphaLISA, read-out: Cell Line (Cell Assay, IC50 class)
# T1 construct: expressed in transfected cells; host or cells: HEK293 (ATCC CRL1573), lentivirus transduction, blasticidin selection
# T1 sequence (Q04771 21-509 R206H): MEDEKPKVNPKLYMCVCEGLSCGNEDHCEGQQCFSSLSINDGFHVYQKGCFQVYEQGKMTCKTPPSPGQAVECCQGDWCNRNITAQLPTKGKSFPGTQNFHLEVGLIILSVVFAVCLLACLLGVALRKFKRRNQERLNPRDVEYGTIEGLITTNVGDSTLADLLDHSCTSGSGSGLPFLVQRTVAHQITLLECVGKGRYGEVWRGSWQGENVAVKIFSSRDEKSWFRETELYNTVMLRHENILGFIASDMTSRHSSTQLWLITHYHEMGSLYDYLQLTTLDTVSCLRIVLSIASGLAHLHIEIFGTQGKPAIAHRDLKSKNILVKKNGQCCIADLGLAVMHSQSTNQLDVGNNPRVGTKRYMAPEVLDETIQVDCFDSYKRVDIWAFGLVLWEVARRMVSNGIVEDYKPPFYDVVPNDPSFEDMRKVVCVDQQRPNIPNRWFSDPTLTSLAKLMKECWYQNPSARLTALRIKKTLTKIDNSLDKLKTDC
# Protocol: Example 11. Cell-Based ALK2-R206H Cell Activity Assay
# A HEK293 (ATCC, Cat No. CRL1573) based stable cell line expressing human ALK2 R206H cDNA (synthesized by GeneScript, Piscataway, N.J.) and a FLAG tag at the C-terminus was generated by lentivirus transduction and subsequent blasticidin (Life Technologies, Cat No. A1113902) selection at 10 μg/ml for >2 wks. This cell line was named HEK293-ALK2-R206H.
# B. Measurement of Smad1-Ser463/Ser465 Phosphorylation by AlphaLISA
# HEK293-ALK2-R206H cells were grown, harvested, and then resuspended in serum-free, phenol red-free DMEM high glucose media (Life Technologies, Cat No. 31053). The media also contained 50 units/ml penicillin and 50 μg/ml streptomycin (Life Technologies, Cat. No. 15070-063). HEK293-ALK2-R206H cells were then plated in white opaque 384-wells microplates (2×10^4/well) (OptiPlate-384, PerkinElmer, Waltham, Mass., Cat No. 6007299) overnight (>16h) at 37° C. 5% CO2 for use in the assay.
# Test compounds were first diluted to 4 mM or 0.4 mM and then serially diluted 3-fold into 10 different concentrations using DMSO. Each concentration of compound was further diluted 40-fold with phenol red-free DMEM (Life Technologies, Cat No. 31053). 2 μl of the diluted compounds were then dispensed into the HEK293-ALK2-R206H cell-containing wells of the microplates in duplicates. In this way, each compound was tested in 10 doses (3-fold serial dilution with the top concentration being 10 μM or 1 μM). Liquid handling was achieved using a Bravo Automated Liquid Handling Platform (Agilent Technologies). DMSO without compound was used as a negative control. The positive control was 1 μM LDN193189, a known bone morphogenetic protein (BMP inhibitor).
# After 2-3 hours of incubation with test compound or control, the cells were lysed and signal was developed using ALPHASCREEN® SUREFIRE® SMAD1 (p-Ser463/465) cellular kinase assay kit (PerkinElmer, Cat No. TGRSM1S10K) following the manufacturer's recommended protocol. The microplates were read using Perkin Elmer ENVISION® plate reader (emission […]). The signal reflected the level of phospho-Ser/463/465-Smad1 in the lysate. The raw data were plotted using the DMSO negative and LDN193189 positive controls as the 0% and 100% inhibition, respectively. The 10-point dose response curve was used to calculate the IC50 values.
# The results of this assay are shown in Table 3 in the column labeled “Cell Assay” wherein “A” represents an IC50 of less than or equal to 100 nM; “B” an IC50 of greater than 100 nM and less than or equal to 500 nM; “C” an IC50 of greater than 500 nM. Blank values in the table indicate that the particular compound was not tested in this assay.
# [1] = target: T2, ALK2R206H (mutant ALK2, N-terminally tagged with GST) (Homo sapiens, UniProt Q04771, R206H); assay: ALK binding assay (LANTHASCREEN TR-FRET competitive binding, displacement of Kinase Tracer 178); conditions: read-out: Binding Assay (IC50 class)
# T2 construct: purchased Carna Bioscience or ThermoFisher 09-148 or PV6232
# T2 sequence (Q04771 21-509 R206H): T1 sequence (Q04771 21-509 R206H)
# In short: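 GST-tagged ALK2 R206H (2-5 nM) mixed with Eu-anti-GST antibody (4-10 nM), Kinase Tracer 178 (50 nM, near its Kd) and compound titration (1% DMSO) in Kinase Buffer A, 30 min at room temperature. Tracer displacement read as TR-FRET ratio, normalized to controls; IC50 from 4-parameter fit.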
pIC50 (human ALK2 R206H),pIC50 [1],SMILES
≥ 7.00,≥ 8.00,CCCOC(=O)N1CCN(c2ccnc3[nH]c(-c4cnn(C)c4)c(C#N)c23)CC1 [Compound 136]
≥ 7.00,≥ 8.00,CC(C)OC(=O)N1CCN(c2ccnc3[nH]c(-c4cnn(C)c4)c(C#N)c23)CC1 [Compound 137]
≥ 7.00,≥ 8.00,Cc1nc(-c2cc3c(N4CCN(C(=O)OC5CCC5)CC4)ccnc3[nH]2)cn1C [Compound 139]
≥ 7.00,≥ 8.00,Cc1c(-c2cnn(C)c2)[nH]c2nccc(N3CCN(C(=O)OC4CCC4)CC3)c12 [Compound 140]
< 6.30,≥ 8.00,Cn1cc(-c2cc3c(N4CCN(C(=O)C5CCOCC5)CC4)ccnc3[nH]2)cn1 [Compound 144]
≥ 7.00,≥ 8.00,CCOC(=O)N1CCN(c2ccnc3[nH]c(-c4cnn(C5COC5)c4)cc23)CC1 [Compound 145]
≥ 7.00,≥ 8.00,CCn1cnc(-c2cc3c(N4CCN(C(=O)OC5COC5)CC4)ccnc3[nH]2)c1 [Compound 146]
≥ 7.00,≥ 8.00,Cc1nc(-c2cc3c(N4CCN(C(=O)OC5COC5)CC4)ccnc3[nH]2)cn1C [Compound 147]
6.30 to 7.00,≥ 8.00,Cc1c(-c2cnn(C)c2)[nH]c2nccc(N3CCN(C(=O)OC4COC4)CC3)c12 [Compound 148]
6.30 to 7.00,≥ 8.00,Cn1cc(-c2cc3c(N4CCN(C(=O)O[C@H]5C[C@@H](O)C5)CC4)ccnc3[nH]2)cn1 [Compound 149]
6.30 to 7.00,≥ 8.00,Cn1cc(-c2cc3c(N4CCN(C(=O)O[C@H]5CCOC5)CC4)ccnc3[nH]2)cn1 [Compound 150]
6.30 to 7.00,≥ 8.00,Cc1nn(C)cc1-c1cc2c(N3CCN(C(=O)OC4COC4)CC3)ccnc2[nH]1 [Compound 151]
6.30 to 7.00,≥ 8.00,Cn1cc(-c2cc3c(N4CCN(C(=O)OC5(C)COC5)CC4)ccnc3[nH]2)cn1 [Compound 152]
6.30 to 7.00,≥ 8.00,Cn1cc(-c2cc3c(N4CCN(C(=O)OCC5COC5)CC4)ccnc3[nH]2)cn1 [Compound 153]
< 6.30,≥ 8.00,CC1OCC1OC(=O)N1CCN(c2ccnc3[nH]c(-c4cnn(C)c4)cc23)CC1 (stereo not drawn) [Compound 155]
≥ 7.00,≥ 8.00,Cc1nc(-c2cc3c(N4CCN(C(=O)OC5CCC5)CC4)ccnc3[nH]2)cs1 [Compound 159]
≥ 7.00,≥ 8.00,Cn1cnc(-c2cc3c(N4CCN(C(=O)O[C@H]5C[C@@H](F)C5)CC4)ccnc3[nH]2)c1 [Compound 160]
≥ 7.00,≥ 8.00,Cn1cc(-c2cc3c(N4CCN(C(=O)O[C@H]5C[C@@H](F)C5)CC4)ccnc3[nH]2)cn1 [Compound 161]
≥ 7.00,≥ 8.00,Cn1cc(-c2cc3c(N4CCN(C(=O)O[C@H]5C[C@H](F)C5)CC4)ccnc3[nH]2)cn1 [Compound 162]
≥ 7.00,≥ 8.00,Cc1csc(-c2cc3c(N4CCN(C(=O)OC5COC5)CC4)ccnc3[nH]2)c1 [Compound 167]
≥ 7.00,≥ 8.00,Cc1cc(-c2cc3c(N4CCN(C(=O)OC5COC5)CC4)ccnc3[nH]2)cs1 [Compound 169]
≥ 7.00,≥ 8.00,Cc1nc(-c2cc3c(N4CCN(C(=O)OC5COC5)CC4)ccnc3[nH]2)cs1 [Compound 170]
6.30 to 7.00,≥ 8.00,Cc1cc(-c2cc3c(N4CCN(C(=O)OC5COC5)CC4)ccnc3[nH]2)sn1 [Compound 171]

pIC50 (human ALK2 R206H),pIC50 [1],SMILES
6.30 to 7.00,≥ 8.00,Cc1csc(-c2cc3c(N4CCN(C(=O)OC5COC5)CC4)ccnc3[nH]2)n1 [Compound 173]
6.30 to 7.00,≥ 8.00,Cc1cnc(-c2cc3c(N4CCN(C(=O)OC5COC5)CC4)ccnc3[nH]2)s1 [Compound 174]
6.30 to 7.00,≥ 8.00,Cc1ncsc1-c1cc2c(N3CCN(C(=O)OC4COC4)CC3)ccnc2[nH]1 [Compound 175]
≥ 7.00,≥ 8.00,CCOC(=O)N1CCN(c2ccnc3[nH]c(-c4ncc(C(C)C)s4)cc23)CC1 [Compound 177]
6.30 to 7.00,≥ 8.00,Cn1cc(-c2[nH]c3nccc(N4CCN(C(=O)OC5COC5)CC4)c3c2F)cn1 [Compound 178]
6.30 to 7.00,≥ 8.00,Cn1cc(-c2cc3c(N4CCN(C(=O)OC5COC5)CC4)ccnc3[nH]2)c(F)n1 [Compound 179]
6.30 to 7.00,≥ 8.00,Cn1cc(-c2cc3c(N4CCN(C(=O)C5CC(F)(F)C5)CC4)ccnc3[nH]2)cn1 [Compound 180]
≥ 7.00,≥ 8.00,NC1(c2ccc(-c3cc4c(N5CCN(C(=O)C6CC6)CC5)ccnc4[nH]3)cc2)CC1 [Compound 183]
6.30 to 7.00,≥ 8.00,CC(C)(C)c1ccc(-c2cc3c(N4CCN(C(=O)C5CC5)CC4)ccnc3[nH]2)cc1 [Compound 185]
6.30 to 7.00,≥ 8.00,CC(C)OC(=O)N1CCN(c2ccnc3[nH]c(-c4cnn(C)c4)c(Cl)c23)CC1 [Compound 186]
≥ 7.00,≥ 8.00,CCCOC(=O)N1CCN(c2ccnc3[nH]c(-c4cnn(C)c4)c(Cl)c23)CC1 [Compound 187]
≥ 7.00,≥ 8.00,N#Cc1ccc(-c2cc3c(N4CCN(C(=O)OC5COC5)CC4)ccnc3[nH]2)cc1 [Compound 188]
≥ 7.00,≥ 8.00,Cc1nc(-c2cc3c(N4CCN(C(=O)O[C@@H](C)CF)CC4)ccnc3[nH]2)cs1 [Compound 189]
≥ 7.00,≥ 8.00,Cc1nc(-c2cc3c(N4CCN(C(=O)OCC(F)F)CC4)ccnc3[nH]2)cn1C [Compound 190]
6.30 to 7.00,≥ 8.00,CCOC(=O)N1CCN(c2ccnc3[nH]c(-c4cnn(C)c4C(F)F)cc23)CC1 [Compound 191]
6.30 to 7.00,≥ 8.00,N#Cc1ccc(-c2cc3c(N4CCN(C(=O)OC5COC5)CC4)ccnc3[nH]2)nc1 [Compound 192]
≥ 7.00,≥ 8.00,CC(C)Oc1ccc(-c2cc3c(N4CCN(C(=O)C5CC5)CC4)ccnc3[nH]2)cc1 [Compound 194]
≥ 7.00,≥ 8.00,CC(C)(O)c1ccc(-c2cc3c(N4CCN(C(=O)C5CC5)CC4)ccnc3[nH]2)cc1 [Compound 195]
≥ 7.00,≥ 8.00,O=C(C1CC1)N1CCN(c2ccnc3[nH]c(-c4cnn(C5CCCC5)c4)cc23)CC1 [Compound 197]
6.30 to 7.00,≥ 8.00,N#Cc1cnc(-c2cc3c(N4CCN(C(=O)OC5COC5)CC4)ccnc3[nH]2)nc1 [Compound 198]
≥ 7.00,≥ 8.00,Cn1cnc(-c2[nH]c3nccc(N4CCN(C(=O)OC5CCC5)CC4)c3c2C#N)c1 [Compound 199]
≥ 7.00,≥ 8.00,Cn1cc(-c2[nH]c3nccc(N4CCN(C(=O)OC5CCC5)CC4)c3c2C#N)cn1 [Compound 200]
